Assays:
[1] = tested on: hydrilla; experiment: Penoxsulam+endothall under static exposure to hydrilla, GR50 and Isobole analysis; format: in vivo, Hydrilla verticillata; conditions: harvested 55 days after treatment, n = 3, endothall as a.e., combinations as total ppb
Description: (§1) Single apical meristems of hydrilla, collected from Florida, were planted into small pots (13.5 cm length×3.75 cm diameter) containing Wallace Farm® topsoil amended with 14-14-14 slow release Osmocote® fertilizer (˜2.5 g Osmocote/kg soil) on 18 Jul. 2008. Approximately 5 to 7 cm of the apical section extended above the sediment at planting, and a sand cap was placed over the potting soil (˜2 cm deep). Plants were then transferred to a 12 L acrylic tanks filled with well water. Tanks were maintained in a growth room with 14:10 h photoperiod at 26° C. Plants were allowed to establish growth for 14 days before treatment.
(§2) Treatments were replicated three times in a completely randomized design. […] All concentrations are expressed as a.e. for endothall.
All above ground biomass was harvested 55 days after treatment. Biomass was dried to constant moisture at 70° C., and dry weights were determined. Data were subjected to regression analysis using Sigma Plot software, and a GR50 was determined (concentration causing a 50% reduction in dry weight). All data were analyzed for synergism/antagonism using the Isobole analysis at the 95% confidence level (estimated using linear interpolation from 95% confidence bands) (Berenbaum, M. C. 1989, Pharmacological Reviews. 41:93-141; Streibig, J. C. 2003, Assessment of herbicide effects: http://www.ewrs.org/et/images/, Herbicide interaction.pdf). […]

[2] = tested on: hydrilla; experiment: Penoxsulam+endothall under multiple exposures to hydrilla, dry weight and Colby analysis; format: in vivo, Hydrilla verticillata; conditions: for Mean dry weight of hydrilla: penoxsulam 0.02, endothall 0.68 mg/L a.e.; for OBSERVED RESPONSE: penoxsulam 0.02, endothall 0.68 mg/L; for hydrilla biomass compared to untreated controls (LSD, p = 0.05): penoxsulam 0.02 or endothall 0.68 mg/L a.e. alone, 3 to 48 day exposures
Description: Apical sections (12 to 15 cm in length) of hydrilla, collected from Florida, were planted into small pots (13.5 cm length×3.75 cm diameter) containing Wallace Farm® topsoil amended with 14-14-14 slow release Osmocote® fertilizer (˜2.5 g Osmocote/kg soil) on 16 Oct. 2008. Approximately 5 to 7 cm of the apical section extended above the sediment at planting, and a sand cap was placed over the potting soil (˜2 cm deep). Plants were then transferred to a 12 L acrylic tanks filled with well water. Tanks were maintained in a growth room with 14:10 h photoperiod at 26° C. Plants were allowed to grow for 8 days before the following treatments were initiated in triple replicate: • A) Untreated controls • B) Penoxsulam at 0.02 mg/L • C) Endothall at 0.68 mg/L a.e. • D) Simultaneous treatment • a. Penoxsulam 0.02 mg/L+endothall at 0.68 mg/L • i. Exposure times • 1. 3 days • 2. 6 days • 3. 12 days • 4. 24 days • 5. 48 days (static) • E) Sequential treatment • a. Penoxsulam 0.02 mg/L, add 0.68 mg/L endothall 24 days later—static exposure to combination • b. Endothall at 0.68 mg/L, add 0.02 mg/L penoxsulam 24 days later—static exposure to combination • c. Penoxsulam 0.02 mg/L, add 0.68 mg/L endothall 12 days later—12 day exposure to combination • d. Endothall at 0.68 mg/L, add 0.02 mg/L penoxsulam 12 days later—12 day exposure to combination • e. Penoxsulam 0.02 mg/L, add 0.68 mg/L endothall 6 days later—6 day exposure to combination • f. Endothall at 0.68 mg/L, add 0.02 mg/L penoxsulam 6 days later—6 day exposure to combination
Endothall was formulated as Aquathol K® (4.23 #/gallon dipotassium salt, or 3#/gallon a.e.); penoxsulam was formulated as Galleon SC® (2#/gallon active ingredient). All concentrations are expressed as a.e. for endothall. At each exposure time, plants were removed from treatments and placed in a tank with fresh water containing no herbicide (including controls) to remove the aqueous exposure and allow for recovery.
Plants were harvested at 48 days after initial treatment. At harvest, plants were rinsed free of algae and placed in paper sacks in a drying oven for 4 days at 70° C. temperature. Mean dry weights were determined and means separated using least significant differences. Difference between observed and expected responses was determined to evaluate potential interactions using methods reported by Colby (Colby S. R. 1967. Weeds. 15:20-22).

[3] = tested on: hydrilla; experiment: Imazamox+endothall under static exposure to hydrilla, GR50 and Isobole analysis; format: in vivo, Hydrilla verticillata; conditions: harvested 34 days after treatment, n = 3, endothall as a.e., combinations as total ppb
Description: as §1, with “on 4 Nov.” for “on 18 Jul.”, “for 10” for “for 14”
as §2
All above ground biomass was harvested 34 days after treatment. Biomass was dried to constant moisture at 70° C., and dry weights were determined. Data were subjected to regression analysis using Sigma Plot software, and a GR50 was determined (concentration causing a 50% reduction in dry weight). All data were analyzed for synergism/antagonism using the Isobole analysis at the 95% confidence level (estimated using linear interpolation from 95% confidence bands) (refer to Example 2 for more information on Isobole analysis).

[4] = tested on: hydrilla; conditions: cited from earlier work
[5] = tested on: hydrilla (Hydrilla verticillata); experiment: Field Study 1: hydrilla control in a 6 acre lake divided into three zones; format: in vivo; conditions: 21 days after treatment
Experimental: A 6 acre somewhat rectangular-shaped lake was divided into three 2 acre zones for this testing. A 2-acre test site (Zone 1), located on the northern one-third of the lake, was treated with a penoxsulam plus endothall combination in order to evaluate control of the exotic aquatic weed, hydrilla (Hydrilla verticillata). Within a 50 gallon spray tank system powered by a 5.5 Hp Honda motor, 0.523 gallons Galleon SC (a commercially available penoxsulam formulation) and 12.7 gallons Aquathol K (a commercially available endothall formulation) were added to 36.78 gallons of water. The herbicide combination mixture delivered an application dose of 15 parts per billion penoxsulam and 0.71 ppm a.e. endothall to Zone 1. This herbicide mixture was evenly injected using a trailing hose over the airboat bow throughout the 2 acre Zone 1. On the day of treatment, Zone 1 contained approximately 90% hydrilla coverage, with growth near or at the water surface.
The remaining 4 acres (both Zone 2 (central one-third) and Zone 3 (southern one-third)) of the lake were treated with 15 ppb penoxsulam alone on the same day. Both Zones 2 and 3 contained approximately 90-95% hydrilla coverage at that time.
Twenty one days following the initial treatment, the hydrilla was assessed for herbicidal injury within Zones 1, 2, and 3. […] Approximately 10% of the original plant volume remained near the water's surface; the balance had fallen to the lake bottom. The same was true for a 1 acre area contiguous down lake to Zone 1 moving into Zone 2. All remaining hydrilla plants suspended in the water column within the 3 acres were expressing severe injury.
On this date, 0.71 ppm a.e. endothall (12.7 gallons Aquathol K) was applied to Zone 3 in order to evaluate contact herbicidal efficacy 21 days following a penoxsulam treatment.

[6] = 3-d exposure, harvested 48 days after initial treatment, n = 3
[7] = 6-d exposure (f/b: second agent added 6 days later, 6 day exposure to combination), harvested at 48 days
[8] = 12-d exposure (f/b: second agent added 12 days later, 12 day exposure to combination), harvested at 48 days
[9] = 24-d exposure (f/b: second agent added 24 days later, static exposure to combination), harvested at 48 days
[10] = 48-d (static) exposure, harvested at 48 days
[11] = Zone 3 and southern portion of Zone 2, 15 ppb penoxsulam alone

Compound: O=C(O)[C@@H]1[C@H](C(=O)O)[C@H]2CC[C@@H]1O2 [Endothall, 3,6-endoxohexahydrophthalic acid]
- GR50 (concentration causing a 50% reduction in dry weight) [1]: 309 ppb
- Mean dry weight of hydrilla [2, 6]: 2.24b
- Mean dry weight of hydrilla [2, 7]: 2.61ab
- Mean dry weight of hydrilla [2, 8]: 2.72c
- Mean dry weight of hydrilla [2, 9]: 2.14bc
- Mean dry weight of hydrilla [2, 10]: 1.62b
- OBSERVED RESPONSE ([2]; exposure 3 days): 64% of control
- OBSERVED RESPONSE ([2]; exposure 6 days): 62% of control
- OBSERVED RESPONSE ([2]; exposure 12 days): 48% of control
- OBSERVED RESPONSE ([2]; exposure 24 days): 47% of control
- OBSERVED RESPONSE ([2]; exposure 48 days): 35% of control
- hydrilla biomass compared to untreated controls (LSD, p = 0.05) [2]: reduced hydrilla biomass compared to untreated controls at all exposure periods, except 3 and 6-day
- GR50 (concentration causing a 50% reduction in dry weight) [3]: 520 ppb
- hydrilla control ([4]; 0.71 ppm a.e. endothall partial area/spot treatment, general): essentially no hydrilla control
- time before hydrilla plants defoliate and drop toward the lake bottom ([4]; 1.4 to 3.5 ppm a.e. endothall, typical, dependent on plant maturity): 2-6 weeks
- contact with hydrilla required to achieve effective control ([4]; Netherland et al. 1991): less than 72 hours

Compound: COCc1cnc(C2=NC(C)(C(C)C)C(=O)N2)c(C(=O)O)c1 (stereo not drawn) [Imazamox]
- GR50 (concentration causing a 50% reduction in dry weight) [3]: 680 ppb

Compound: COc1cnc(OC)n2nc(NS(=O)(=O)c3c(OCC(F)F)cccc3C(F)(F)F)nc12 [Penoxsulam, 2-(2,2-difluoroethoxy)-6-trifluoromethyl-N-(5,8-dimethoxy[1,2,4]triazolo[1,5c]pyrimidin-2-yl)benzenesulfonamide]
- hydrilla control [5, 11]: no control was observed
- hydrilla remaining near the water's surface [5, 11]: Approximately 90%
- herbicidal injury of hydrilla ([5]; Zones 2 and 3, 15 ppb penoxsulam alone): slight but expected penoxsulam injury
- GR50 (concentration causing a 50% reduction in dry weight) [1]: 12 ppb
- Mean dry weight of hydrilla [2, 6]: 4.01a
- Mean dry weight of hydrilla [2, 7]: 3.97a
- Mean dry weight of hydrilla [2, 8]: 3.68ab
- Mean dry weight of hydrilla [2, 9]: 3.24ab
- Mean dry weight of hydrilla [2, 10]: 2.41ab
- OBSERVED RESPONSE ([2]; exposure 3 days): 115% of control
- OBSERVED RESPONSE ([2]; exposure 6 days): 95% of control
- OBSERVED RESPONSE ([2]; exposure 12 days): 97% of control
- OBSERVED RESPONSE ([2]; exposure 24 days): 72% of control
- OBSERVED RESPONSE ([2]; exposure 48 days): 52% of control
- hydrilla biomass compared to untreated controls (LSD, p = 0.05) [2]: not significantly different from untreated controls
- time before severe injury is expressed ([4]; penoxsulam treated hydrilla, typical): about 60 days

Source: patent US8716183B2, “Control of aquatic weeds with endothall and ALS-inhibiting agent” (SePro Corporation, priority 2008, dated 2014)
